Source: article PMC8279415, “Targeting Acute Myelogenous Leukemia Using Potent Human Dihydroorotate Dehydrogenase Inhibitors Based on the 2-Hydroxypyrazolo[1,5-a]pyridine Scaffold: SAR of the Biphenyl Moiety” (Journal of Medicinal Chemistry, 2021)
Values after ≈ are worked out from the molar mass of the structure shown. Read-outs that look alike come from different tables or passages of the source.

Legend:
recombinant hDHODH = target: T1, recombinant hDHODH (Homo sapiens, UniProt Q02127); test: hDHODH inhibition assay (DCIP reduction); assay type: biochemical
T1 construct: made in house; host or cells: E. coli BL21DE3 PyrD
T1 sequence (Q02127 whole entry): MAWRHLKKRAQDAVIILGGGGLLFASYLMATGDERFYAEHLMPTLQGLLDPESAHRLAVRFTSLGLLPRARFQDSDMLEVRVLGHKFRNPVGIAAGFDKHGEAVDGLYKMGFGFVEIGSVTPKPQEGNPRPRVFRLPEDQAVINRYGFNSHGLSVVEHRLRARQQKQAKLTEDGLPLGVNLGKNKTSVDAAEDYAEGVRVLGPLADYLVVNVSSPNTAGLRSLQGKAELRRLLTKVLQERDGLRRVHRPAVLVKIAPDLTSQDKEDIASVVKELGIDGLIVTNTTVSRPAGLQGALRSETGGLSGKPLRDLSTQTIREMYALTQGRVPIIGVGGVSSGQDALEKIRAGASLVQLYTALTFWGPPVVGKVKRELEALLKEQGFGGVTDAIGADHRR
Procedure: BL21DE3 PyrD E. coli cells were transformed using the plasmid construct pFN2A–hDHODH (kindly given by Department of Drug Science and Technology, University of Turin, Turin, Italy). The vector produces hDHODH as an N-terminal GST-fusion protein. Cells were grown at 37 °C in LB medium supplemented with 0.1 mM flavin mononucleotide (Cayman Chemical). […] Triton X-100 was added to the lysate, to a final concentration of 1%, before centrifugation at 14 000g for 40 min at 4 °C. The clarified supernatant was incubated with DNase I for 30 min at room temperature, supplemented with 2 mM dithiothreitol (DTT), and filtered through a 0.45 μm syringe filter as previously described by Sainas et al.[18] The GST-fused enzyme was purified from the bacterial lysate using affinity chromatography on immobilized glutathione-Sepharose columns (GE- […]). The GST tag was not cleaved for further analysis. All the reagents used in the protein expression and purification were supplied by Merck/Sigma-Aldrich if not otherwise specified.
The enzymatic inhibition assay was optimized for being performed on a 96-well plate and to achieve higher throughput. For each well of the plate a total volume of 200 μL was used: 5 μL of purified GST-hDHODH; 60 μL of 2,6-dichloroindophenol (DCIP) 50 μM; 20 μL of coenzyme Q10 enzyme 100 μM; 20 μL of dihydroorotate (DHO) 500 μM; Tris-HCl, pH 8, up to a final volume of 200 μL. Inhibitory activity was assessed by monitoring the reduction of DCIP, which is associated with the oxidation of dihydroorotate as catalyzed by the DHODH enzyme. The enzyme was preincubated for 5 min at 37 °C in Tris-HCl, pH 8, with coenzyme Q10, with DCIP (50 μM), and with the compounds to be tested used at different concentrations (final DMSO concentration 0.1% v/v). The reaction was initiated by the addition of DHO (500 μM), and the absorbance kinetic reduction was monitored at λ = 650 nm using a multiplate reader (Tecan, M1000Pro). In order to assess the minimum and maximum absorbance values of the enzymatic reaction, a Min control value was obtained by measuring the absorbance without DHO. Similarly, a Max value was obtained by measuring the absorbance with DHO but no inhibitor. A blank reduction calculation was also performed by measuring the absorbance values using 180 μL of Tris-HCl and 20 μL of coenzyme Q10. The instrument was set to read the absorbance values every 10 s for a total read time of 10 min at 37 °C. […] Values are the mean ± SE of three independent experiments.

[1] = LogD7.4, shake-flask n-octanol/PBS; conditions: for logD at 20 min / logD: pH 7.4; for logD: n-octanol/PBS; for LogD^7.4 ± SD: n-octanol/PBS pH 7.4, shake-flask; for Log D7.4 ± SD (supplement CSV): supplementary CSV
Procedure: The partition coefficients between n-octanol and PBS at pH 7.4 (LogD^7.4) were obtained using the shake-flask technique at room temperature. In the shake-flask experiments, 50 mM phosphate buffered saline, pH 7.4, was used as the aqueous phase. The organic (n-octanol) and aqueous phases were mutually saturated by shaking for 4 h. The compounds were solubilized in the buffered aqueous phase at the highest concentration compatible with solubility, and appropriate amounts of n-octanol were added. The two phases were shaken for about 20 min, by which time the partitioning equilibrium of solutes had been reached, and then centrifuged (10 000 rpm, 10 min). The concentration of the solutes was measured in the aqueous phase using a UV spectrophotometer (Varian Cary 50BIO); absorbance values (recorded for each compound at the wavelength of maximum absorption) were interpolated in calibration curves obtained using standard solutions of the compounds (r^2 > 0.99). Each log D value is an average of at least six measurements.

[2] = Solubility assay at pH 7.4 in PBS; assay type: physicochemical; conditions: for solubility in PBS / solubility at 24 h: pH 7.4, 25 °C, 24 h, LOD 6 μM; for solubility at 24 h: phosphate buffered saline
Procedure: These suspensions were filtered through a PTFE 0.45 μm filter (VWR), and the solutions were chromatographically analyzed using a PerkinElmer ultrahigh performance liquid chromatography (UHPLC) instrument, equipped with a reverse-phase (RP) C18 Phenomenex column (2.1 mm × 100 mm, 1.7 μm particle size). […] The flow rate was 0.5 mL/min. Standard injection volumes were either 2 or 4 μL for poorly soluble compounds. The detection system was a PerkinElmer diode array detector. The wavelengths that were monitored for each compound were defined according to the compound’s own absorption spectrum. Solubility, expressed as μM concentration of the saturated solution, was calculated via interpolation with external calibration curves that were obtained with solutions of each compound in acetonitrile.

THP1 cells = test: Fixed-concentration screening of differentiation (CD14) and apoptosis (annexin V) in THP1, with or without uridine; assay type: cell-based, human; conditions: THP1, 1 μM
Procedure: DMSO (dimethyl sulfoxide) acts as the negative control group as it was used to solubilize hDHODH inhibitors. ∗, ∗∗, ∗∗∗ represent the statistical significance for apoptosis (respectively p < 0.05, < 0.01, and <0.001). #, ##, and ### represent the statistical significance for differentiation (respectively p < 0.05, <0.01, and <0.001). The statistical significance is calculated by comparing the compounds to DMSO.
The statistical significance is calculated by comparing the compounds to DMSO.

[3] = mean ± SE of three independent experiments, read-out: hDHODH, IC50 ± SE
[4] = supplementary CSV, values differ from Table 2, read-out: hDHODH IC50 ± SE (supplement CSV)

Row | SMILES | IC50 (recombinant hDHODH; [3]) [nM] | logD at 20 min [1] | solubility in PBS [2] | logD [1] | activity in cells (differentiation and apoptosis) (THP1 cells) | solubility at 24 h [2] [µM] | IC50 (recombinant hDHODH; [4]) [nM] | solubility in PBS relative to 1 [2] | LogD^7.4 ± SD [1] | Log D7.4 ± SD (supplement CSV) [1]
1 | Cc1cccc2c(C(=O)Nc3c(F)c(F)c(-c4ccccc4)c(F)c3F)c(O)nn12 [Compound 2] | 4.3 ± 0.5 | – | – | – | – | – | – | – | – | –
2 | O=C(Nc1c(F)c(F)c(-c2ccccc2)c(F)c1F)c1c(O)nn2c(Cl)cccc12 [Compound 4, 7-Chloro-2-hydroxy-N-(2,3,5,6-tetrafluoro-[1,1′-biphenyl]-4-yl)pyrazolo[1,5-a]pyridine-3-carboxamide] | 3.4 ± 0.5 | 2.81 ± 0.13 | <LOD | – | – | – | – | – | – | –
3 | O=C(Nc1c(F)c(F)c(-c2ccccc2)c(F)c1F)c1c(O)nn2c1CCCC2 [Compound 5, 2-Hydroxy-N-(2,3,5,6-tetrafluoro-[1,1′-biphenyl]-4-yl)-4,5,6,7-tetrahydropyrazolo[1,5-a]pyridine-3-carboxamide] | 5.8 ± 0.4 | 2.36 ± 0.02 | <LOD | – | – | – | – | – | – | –
4 | O=C(Nc1c(F)c(F)c(N2CCOCC2)c(F)c1F)c1c(O)nn2ccccc12 [Compound 6, 2-Hydroxy-N-(2,3,5,6-tetrafluoro-4-morpholinophenyl)pyrazolo[1,5-a]pyridine-3-carboxamide] | 90.9 ± 13.1 | – | – | 0.66 ± 0.08 | basically inactive | 438 (≈ 180 µg/mL) | – | – | – | –
5 | O=C(Nc1c(F)c(F)c(-c2cccs2)c(F)c1F)c1c(O)nn2ccccc12 [Compound 7, 2-Hydroxy-N-(2,3,5,6-tetrafluoro-4-(thiophen-2-yl)phenyl)pyrazolo[1,5-a]pyridine-3-carboxamide] | 1.35 ± 0.45 | – | – | – | – | – | 1.37 ± 0.1 | – | – | –
6 | O=C(Nc1c(F)c(F)c(-c2ccnc(C(F)(F)F)c2)c(F)c1F)c1c(O)nn2ccccc12 [Compound 9, 2-Hydroxy-N-(2,3,5,6-tetrafluoro-4-(2-(trifluoromethyl)pyridin-4-yl)phenyl)pyrazolo[1,5-a]pyridine-3-carboxamide] | 150 ± 15 | – | – | 1.84 ± 0.06 | basically inactive | 20.2 (≈ 9.5 µg/mL) | – | 1.5 times | – | –
7 | O=C(Nc1c(F)c(F)c(-c2ccc(F)cc2)c(F)c1F)c1c(O)nn2ccccc12 [Compound 10, 2-Hydroxy-N-(2,3,4′,5,6-pentafluoro-[1,1′-biphenyl]-4-yl)pyrazolo[1,5-a]pyridine-3-carboxamide] | 17.7 ± 3.3 | – | <LOD | – | – | < 6 | 8.32 ± 1.36 | – | insoluble | Insoluble
8 | O=C(Nc1c(F)c(F)c(-c2ccc(C(F)(F)F)cc2)c(F)c1F)c1c(O)nn2ccccc12 [Compound 12, 2-Hydroxy-N-(2,3,5,6-tetrafluoro-4′-(trifluoromethyl)-[1,1′-biphenyl]-4-yl)pyrazolo[1,5-a]pyridine-3-carboxamide] | 71.8 ± 9.42 | – | <LOD | – | – | < 6 | 29.6 ± 3.2 | – | insoluble | Insoluble
9 | O=C(Nc1c(F)c(F)c(-c2cccc(O)c2)c(F)c1F)c1c(O)nn2ccccc12 [Compound 14, 2-Hydroxy-N-(2,3,5,6-tetrafluoro-3′-hydroxy-[1,1′-biphenyl]-4-yl)pyrazolo[1,5-a]pyridine-3-carboxamide] | 2.78 ± 0.32 | – | – | 1.82 ± 0.09 | basically inactive | 55.3 (≈ 23.1 µg/mL) | 2 ± 0.67 | around 5 times | – | –
